Measured values taken from patent US20250326794A1, “ANTI-CANCER LEUCINE-RICH PEPTIDES AND USES THEREOF” (KING'S COLLEGE LONDON, priority 2019, published 2025).

Experiments:
[1] = ANTS/DPX liposome leakage assay, POPC vesicles; format: biochemical; settings: 0.5 mM vesicles; for Peptide Concentration-induced 50% ANTS/DPX leakage at pH 4.8, POPC Vesicle: pH 4.8, lipid per peptide; for Peptide Concentration-induced 50% ANTS/DPX leakage at pH 7.4, POPC Vesicle: pH 7.4, lipid per peptide
Summary of the method: (§1)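 Peptide titrations (0–20 μM) were incubated 3 h with 0.5 mM ANTS/DPX-loaded 100 nm vesicles, either POPC alone or 3:1 POPC/POPG, at pH 7.4 or pH 4.8 in PBS. ANTS fluorescence (350/510 nm) normalized to Triton-lysed vesicles; 50%-leakage values given as lipid:peptide ratio.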

[2] = system: HMLER-shEcad (human breast cancer stem cell); assay: cells; settings: 72 h
Summary of the method: (§2)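 MTT viability after 72 h exposure to 0–100 μM compound (final DMSO 0.5% or 0%), 5×10^3 cells/well; HMLER lines and MCF-10A in MEGM, U2OS in DMEM with 10% FBS. A550 normalized to matching vehicle controls; IC50 interpolated from dose–response curves.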

[3] = system: HMLER (human breast cancer bulk cell); assay: cells; settings: 72 h
Summary of the method: as §2

[4] = system: HEK293T (human embryonic kidney cell); assay: cells; settings: 72 h
[5] = system: U2OS (human bone osteosarcoma); settings: 72 h
Summary of the method: as §2

[6] = Tryptophan fluorescent binding assay, POPC vesicles; settings: 50 μM peptide, PBS pH 7.4, lipid per peptide
Summary of the method: (§3)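 Binding followed by tryptophan emission (300-450 nm, 280 nm excitation, 3 scans averaged) after 60 min incubation of 50 μM peptide with 0-5000 μM extruded 100 nm POPC or 3:1 POPC/POPG vesicles in PBS pH 7.4. Value: lipid-to-peptide ratio at half-maximal binding.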

[7] = ANTS/DPX liposome leakage assay, 3POPC/1POPG vesicles; format: biochemical; settings: 0.5 mM vesicles; for Peptide Concentration-induced 50% ANTS/DPX leakage at pH 4.8, 3POPC/1POPG Vesicle: pH 4.8, lipid per peptide; for Peptide Concentration-induced 50% ANTS/DPX leakage at pH 7.4, 3POPC/1POPG Vesicle: pH 7.4, lipid per peptide
Summary of the method: as §1

[8] = Tryptophan fluorescent binding assay, 3POPC/1POPG vesicles; settings: 50 μM peptide, PBS pH 7.4, lipid per peptide
Summary of the method: as §3

| SMILES | Peptide Concentration-induced 50% ANTS/DPX leakage at pH 4.8, POPC Vesicle [1] [L/P] | Peptide Concentration-induced 50% ANTS/DPX leakage at pH 7.4, POPC Vesicle [1] [L/P] | IC50 [2] [µM] | IC50 [3] [µM] | IC50 [4] [µM] | IC50 [5] [µM] | Lipid Concentration-induced 50% Peptide Binding, POPC Vesicle [6] [L/P] | Peptide Concentration-induced 50% ANTS/DPX leakage at pH 4.8, 3POPC/1POPG Vesicle [7] [L/P] | Peptide Concentration-induced 50% ANTS/DPX leakage at pH 7.4, 3POPC/1POPG Vesicle [7] [L/P] | Lipid Concentration-induced 50% Peptide Binding, 3POPC/1POPG Vesicle [8] [L/P] |
| --- | --- | --- | --- | --- | --- | --- | --- | --- | --- | --- |
| CC(C)C[C@H](NC(=O)CN)C(=O)N[C@@H](CC(C)C)C(=O)N[C@@H](Cc1c[nH]cn1)C(=O)N[C@@H](CC(C)C)C(=O)N[C@@H](CC(C)C)C(=O)N[C@@H](Cc1c[nH]cn1)C(=O)N[C@@H](CC(C)C)C(=O)N[C@@H](CC(C)C)C(=O)N[C@@H](CC(C)C)C(=O)N[C@@H](CCCCN)C(=O)N[C@@H](C)C(=O)N[C@@H](C)C(=O)NCC(=O)N[C@@H](Cc1c[nH]c2ccccc12)C(N)=O [HHK] | 149 | 1133 | 1.75 ± 0.21 | 3.15 ± 0.07 | 5.25 ± 1.48 | 12.7 ± 1.91 | 0.68 | 111 | 160 | 0.20 |
| CC(C)C[C@H](NC(=O)CN)C(=O)N[C@@H](CC(C)C)C(=O)N[C@@H](Cc1c[nH]cn1)C(=O)N[C@@H](CC(C)C)C(=O)N[C@@H](CC(C)C)C(=O)N[C@@H](CCCCN)C(=O)N[C@@H](CC(C)C)C(=O)N[C@@H](CC(C)C)C(=O)N[C@@H](CC(C)C)C(=O)N[C@@H](CCC(=O)O)C(=O)N[C@@H](C)C(=O)N[C@@H](C)C(=O)NCC(=O)N[C@@H](Cc1c[nH]c2ccccc12)C(N)=O [HKE] | 173 | 692 | 1.9 ± 0.42 | 2.7 ± 0.28 | 5.15 ± 0.64 | 16 ± 0.78 | 0.75 | 94 | 365 | 0.25 |
| CC(C)C[C@H](NC(=O)CN)C(=O)N[C@@H](CC(C)C)C(=O)N[C@@H](Cc1c[nH]cn1)C(=O)N[C@@H](CC(C)C)C(=O)N[C@@H](CC(C)C)C(=O)N[C@@H](CCCCN)C(=O)N[C@@H](CC(C)C)C(=O)N[C@@H](CC(C)C)C(=O)N[C@@H](CC(C)C)C(=O)N[C@@H](Cc1c[nH]cn1)C(=O)N[C@@H](C)C(=O)N[C@@H](C)C(=O)NCC(=O)N[C@@H](Cc1c[nH]c2ccccc12)C(N)=O [HKH] | 193 | 1077 | 3.1 ± 0.57 | 3.45 ± 0.21 | 5.7 ± 0.99 | 18.9 ± 1.24 | 0.18 | 47 | 274 | 0.38 |
| CC(C)C[C@H](NC(=O)CN)C(=O)N[C@@H](CC(C)C)C(=O)N[C@@H](Cc1c[nH]cn1)C(=O)N[C@@H](CC(C)C)C(=O)N[C@@H](CC(C)C)C(=O)N[C@@H](CCCCN)C(=O)N[C@@H](CC(C)C)C(=O)N[C@@H](CC(C)C)C(=O)N[C@@H](CC(C)C)C(=O)N[C@@H](CCCCN)C(=O)N[C@@H](C)C(=O)N[C@@H](C)C(=O)NCC(=O)N[C@@H](Cc1c[nH]c2ccccc12)C(N)=O [HKK] | 106 | 657 | 2.6 ± 0.42 | 3.4 ± 0.71 | 9.5 ± 0.99 | 12.23 ± 0.11 | 0.18 | 106 | 90 | 0.14 |
| CC(C)C[C@H](NC(=O)CN)C(=O)N[C@@H](CC(C)C)C(=O)N[C@@H](CCCCN)C(=O)N[C@@H](CC(C)C)C(=O)N[C@@H](CC(C)C)C(=O)N[C@@H](CCC(=O)O)C(=O)N[C@@H](CC(C)C)C(=O)N[C@@H](CC(C)C)C(=O)N[C@@H](CC(C)C)C(=O)N[C@@H](Cc1c[nH]cn1)C(=O)N[C@@H](C)C(=O)N[C@@H](C)C(=O)NCC(=O)N[C@@H](Cc1c[nH]c2ccccc12)C(N)=O [KEH] | 188 | 995 | 2.35 ± 0.07 | 3.3 ± 0.42 | 5.65 ± 0.07 | 49.2 ± 5.3 | 1.00 | 68 | 286 | 0.50 |
| CC(C)C[C@H](NC(=O)CN)C(=O)N[C@@H](CC(C)C)C(=O)N[C@@H](CCCCN)C(=O)N[C@@H](CC(C)C)C(=O)N[C@@H](CC(C)C)C(=O)N[C@@H](CCC(=O)O)C(=O)N[C@@H](CC(C)C)C(=O)N[C@@H](CC(C)C)C(=O)N[C@@H](CC(C)C)C(=O)N[C@@H](CCCCN)C(=O)N[C@@H](C)C(=O)N[C@@H](C)C(=O)NCC(=O)N[C@@H](Cc1c[nH]c2ccccc12)C(N)=O [KEK] | 110 | 1173 | 1.35 ± 0.07 | 1.6 ± 0.14 | 3.2 ± 0.14 | 8.15 ± 0.49 | 0.47 | 126 | 438 | 0.50 |
| CC(C)C[C@H](NC(=O)CN)C(=O)N[C@@H](CC(C)C)C(=O)N[C@@H](CCCCN)C(=O)N[C@@H](CC(C)C)C(=O)N[C@@H](CC(C)C)C(=O)N[C@@H](Cc1c[nH]cn1)C(=O)N[C@@H](CC(C)C)C(=O)N[C@@H](CC(C)C)C(=O)N[C@@H](CC(C)C)C(=O)N[C@@H](CCC(=O)O)C(=O)N[C@@H](C)C(=O)N[C@@H](C)C(=O)NCC(=O)N[C@@H](Cc1c[nH]c2ccccc12)C(N)=O [KHE] | 183 | 981 | 2.92 ± 0.17 | 3.7 ± 0.14 | 26 ± 2.83 | 53 ± 2.83 | 0.88 | 156 | 188 | 0.71 |
| CC(C)C[C@H](NC(=O)CN)C(=O)N[C@@H](CC(C)C)C(=O)N[C@@H](CCCCN)C(=O)N[C@@H](CC(C)C)C(=O)N[C@@H](CC(C)C)C(=O)N[C@@H](Cc1c[nH]cn1)C(=O)N[C@@H](CC(C)C)C(=O)N[C@@H](CC(C)C)C(=O)N[C@@H](CC(C)C)C(=O)N[C@@H](Cc1c[nH]cn1)C(=O)N[C@@H](C)C(=O)N[C@@H](C)C(=O)NCC(=O)N[C@@H](Cc1c[nH]c2ccccc12)C(N)=O [KHH] | 227 | 1153 | 4.45 ± 0.49 | 5.2 ± 0.71 | 7.75 ± 0.78 | 39.8 ± 5.3 | 3.50 | 48 | 329 | 0.94 |
